In assay [1] the target is T1, Myeloid Cell Leukemia 1 (Mcl-1) (Homo sapiens, UniProt Q07820).
T1 construct: Terbium (Tb) label; means of attachment not described
The assay can be described thus: biochemical. In kind it is binding.

The subject of assay [2] is MOLP-8 human multiple myeloma cell line. The assay can be described thus: Caspase-Glo 3/7 apoptosis induction assay in MOLP-8 cells. Conditions: averaged over all runs on all batches. It counts as cell-based. The source says: MCL-1 is a regulator of apoptosis and is highly over-expressed in tumor cells that escape cell death. The assay evaluates the cellular potency of small-molecule compounds targeting regulators of the apoptosis pathway, primarily MCL-1, Bfl-1, Bcl-2, and other proteins of the Bcl-2 family. Protein-protein inhibitors disrupting the interaction of anti-apoptotic regulators with BH3-domain proteins initiate apoptosis.
The Caspase-Glo® 3/7 Assay is a luminescent assay that measures caspase-3 and −7 activities in purified enzyme preparations or cultures of adherent or suspension cells. The assay provides a proluminescent caspase-3/7 substrate, which contains the tetrapeptide sequence DEVD. This substrate is cleaved to release aminoluciferin, a substrate of luciferase used in the production of light. Addition of the single Caspase-Glo® 3/7 Reagent in an “add-mix-measure” format results in cell lysis, followed by caspase cleavage of the substrate and generation of a “glow-type” luminescent signal.
This assay uses the MOLP-8 human multiple myeloma cell line, which is sensitive to MCL-1 inhibition.
Cell cultures were maintained between 0.2 and 2.0×10^6 cells/mL. The cells were harvested by collection in 50 mL conical tubes. The cells were then pelleted at 500 g for 5 mins before removing supernatant and resuspension in fresh pre-warmed culture medium. The cells were counted and diluted as needed.
The assay reagent was prepared by transferring the buffer solution to the substrate vial and mixing. The solution may be stored for up to 1 week at 4° C. with negligible loss of signal.
Compounds were delivered in assay-ready plates (Proxiplate) and stored at −20° C.
Assays always include 1 reference compound plate containing reference compounds. The plates were spotted with 40 nL of compounds (0.5% DMSO final in cells; serial dilution; […] highest conc. 1/3 dilution, 10 doses, duplicates). The compounds were used at room temperature and 4 μL of pre-warmed media was added to all wells except column 2 and 23. The negative control was prepared by adding 1% DMSO in media. The positive control was prepared by adding the appropriate positive control compound in final concentration of […] in media. The plate was prepared by adding 4 μL negative control to column 23, 4 μL positive control to column 2 and 4 μL cell suspension to all wells in the plate. The plate with cells was then incubated at 37° C. for 2 hours. The assay signal reagent is the Caspase-Glo solution described above, and 8 μL was added to all wells. The plates were then sealed and measured after 30 minutes.
The activity of a test compound was calculated as percent change in apoptosis induction as follows: […]

Setting [3] is: Homo sapiens, MOLP-8, 2 h, read-out: MOLP8 Caspase-Glo AC50 (nM) LD value, MOLP-8 cells, 2 hours at 37° C., caspase-3/7 luminescence.
Setting [4] is: read-out: MOLP8 Caspase-Glo AC50 (nM) LD value, MOLP-8 cells, 2 hours at 37° C., caspase-3/7 luminescence.

Read-outs that look alike come from different tables or passages of the source.

This passage reports Ki and AC50 results from patent US20230130109A1, “MACROCYCLIC INDOLE DERIVATIVES AS INHIBITORS OF MCL-1” (priority 2020, published 2023).

A word on the Ki: it is the equilibrium dissociation constant of an inhibitor or competing ligand from its target.

T1 sequence (Q07820 whole entry): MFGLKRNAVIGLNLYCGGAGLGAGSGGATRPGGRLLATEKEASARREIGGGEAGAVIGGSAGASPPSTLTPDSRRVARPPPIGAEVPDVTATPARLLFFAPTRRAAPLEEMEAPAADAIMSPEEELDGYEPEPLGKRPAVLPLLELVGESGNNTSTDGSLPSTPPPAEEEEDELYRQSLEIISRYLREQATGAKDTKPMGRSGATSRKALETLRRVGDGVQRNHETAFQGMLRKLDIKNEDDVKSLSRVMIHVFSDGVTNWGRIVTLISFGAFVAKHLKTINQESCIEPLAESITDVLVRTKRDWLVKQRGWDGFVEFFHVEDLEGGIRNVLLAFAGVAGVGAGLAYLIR

In assay [1] (TB-MCL1 Ki (nM)), `COCCOCCOCCn1nc2c(c1C)-c1c(Cl)ccc3c1c(C)c(C(=O)O)n3CCCOc1cc(cc3cc(F)ccc13)CCc1cc(nn1C)CSC2` [Compound 17] came in with a Ki of 0.018 nM. For the same compound, the AC50 in assay [2] (setting [3]) is 46.8 nM.
`Cc1c(C(=O)O)n2c3ccc(Cl)c(c13)-c1c(nn(C)c1C)CS(=O)(=O)Cc1cc(n(C)n1)CCc1cc(c3ccccc3c1)OCCC2` [Compound 6] returned a Ki in assay [1] (TB-MCL1 Ki (nM)) of 0.059 nM. For the same compound, the AC50 in assay [2] (setting [4]) is 931 nM.
`COCCOCCn1nc(C)c2c1CSCc1cc(n(C)n1)CCc1cc(c3ccc(F)c(F)c3c1)OCCCn1c(C(=O)O)c(C)c3c-2c(Cl)ccc31` [Compound 62] came in with a Ki in assay [1] (TB-MCL1 Ki (nM)) of 0.027 nM. Besides, the AC50 in assay [2] (setting [3]) was 11.3 nM.
Take `COCCOCCn1nc(C)c2c1CS(=O)(=O)Cc1cc(n(C)n1)CCc1cc(c3ccc(F)cc3c1)OCCCn1c(C(=O)O)c(C)c3c-2c(Cl)ccc31` (single isomer, unassigned) [Compound 67]: the Ki in assay [1] (TB-MCL1 Ki (nM)) came out at 0.017 nM. Besides, the AC50 in assay [2] (setting [3]) came to 104 nM.
As to `COCCn1nc(C)c2c1CSCc1cc(n(C)n1)CCc1cc(c3ccc(Cl)cc3c1)OCCCn1c(C(=O)O)c(C)c3c-2c(Cl)ccc31` [Compound 41], the AC50 in assay [2] (setting [4]) came to 568 nM.
`CNCCn1nc2c(c1C)-c1c(Cl)ccc3c1c(C)c(C(=O)O)n3CCCOc1cc(cc3cc(F)ccc13)CCc1cc(nn1C)CSC2` (single isomer, unassigned) [Compound 68]: the Ki in assay [1] (TB-MCL1 Ki (nM)) worked out at 0.008 nM. In assay [2] (setting [3]), the AC50 worked out at 440 nM.
In the case of `COCCOCCOCCn1nc(C)c2c1CSCc1cc(n(C)n1)CCc1cc(c3ccc(F)cc3c1)OCCCn1c(C(=O)O)c(C)c3c-2c(Cl)ccc31` [Compound 16], the affinity in assay [1] (TB-MCL1 Ki (nM)), expressed as Ki, was 0.024 nM. Moreover, the AC50 in assay [2] (setting [3]) worked out at 19.7 nM.
Consider `Cc1nn(CCO)c2c1-c1c(Cl)ccc3c1c(C)c(C(=O)O)n3CCCOc1cc(cc3cc(F)ccc13)CCc1cc(nn1C)CSC2` [Compound 52], for which the AC50 in assay [2] (setting [4]) turned out to be 39.4 nM.
`COCCn1nc2c(c1C)-c1c(Cl)ccc3c1c(C)c(C(=O)O)n3CCCOc1cc(cc3cc(F)ccc13)CCc1cc(nn1C)CSC2` [Compound 19]: the Ki in assay [1] (TB-MCL1 Ki (nM)) came to 0.035 nM. Besides, the AC50 in assay [2] (setting [3]) was 20.7 nM.
Taken in the same sequence, the figures for `Cc1nn(CCC2CCOCC2)c2c1-c1c(Cl)ccc3c1c(C)c(C(=O)O)n3CCCOc1cc(cc3cc(F)ccc13)CCc1cc(nn1C)CSC2` [Compound 22] were 0.029 nM and 20.1 nM.
Take `COCCOCCn1nc(C)c2c1CSCc1cc(n(C)n1)CCc1cc(c3ccc(F)cc3c1)OCCCn1c(C(=O)O)c(C)c3c-2c(Cl)ccc31` [Compound 31]: in assay [1] (read-out: TB-MCL1 Ki), the Ki was 0.015 nM.
`Cc1c(C(=O)O)n2c3ccc(Cl)c(c13)-c1c(nn(CCC3CCOCC3)c1C)CSCc1cc(n(C)n1)CCc1cc(c3ccc(F)cc3c1)OCCC2` [Compound 23] showed a Ki in assay [1] (TB-MCL1 Ki (nM)) of 0.016 nM. In assay [2] (setting [3]), the AC50 came to 30.6 nM.
The matching figures for `Cc1nn(C)c2c1-c1c(Cl)ccc3c1c(C)c(C(=O)O)n3CCCOc1cc(cc3cc(F)ccc13)CCc1cc(nn1C)CSC2` [Compound 28]: 0.028 nM and 16.7 nM.
Take `Cc1c(C(=O)O)n2c3ccc(Cl)c(c13)-c1c(nn(C)c1C)CSCc1cc(n(C)n1)CCc1cc(c3ccccc3c1)OCCC2` [Compound 2]: in assay [1] (TB-MCL1 Ki (nM)), the Ki was 0.483 nM. The AC50 in assay [2] (setting [3]) was determined as 1260 nM.
For `COCCOCCn1nc2c(c1C)-c1c(Cl)ccc3c1c(C)c(C(=O)O)n3CCCOc1cc(cc3c(F)c(F)ccc13)CCc1cc(nn1C)CSC2` (single isomer, unassigned) [Compound 65], in assay [1] (TB-MCL1 Ki (nM)), the inhibitory constant (Ki) was 2.98 nM. Also, the AC50 in assay [2] (setting [4]) came out at 1600 nM.
Regarding `COCC(COC)n1nc(C)c2c1CSCc1cc(n(C)n1)CCc1cc(c3ccc(F)cc3c1)OCCCn1c(C(=O)O)c(C)c3c-2c(Cl)ccc31` [Compound 20], the Ki in assay [1] (TB-MCL1 Ki (nM)) turned out to be 0.026 nM. Besides, the AC50 in assay [2] (setting [3]) was 8.8 nM.
Take `COCCOCCn1nc2c(c1C)-c1c(Cl)ccc3c1c(C)c(C(=O)O)n3CCCOc1cc(cc3c(F)c(F)ccc13)CCc1cc(nn1C)CSC2` (single isomer, unassigned) [Compound 63]: in assay [1] (TB-MCL1 Ki (nM)), the Ki was 0.026 nM. For the same compound, in assay [2] (setting [4]), the AC50 was 22 nM.
In assay [1] (TB-MCL1 Ki (nM)), `Cc1nn(CCOCCO)c2c1-c1c(Cl)ccc3c1c(C)c(C(=O)O)n3CCCOc1cc(cc3cc(F)ccc13)CCc1cc(nn1C)CSC2` [Compound 51] returned a Ki of 0.013 nM. For the same compound, the AC50 in assay [2] (setting [3]) amounted to 87.3 nM.
The matching figures for `Cc1nn(CCCN)c2c1-c1c(Cl)ccc3c1c(C)c(C(=O)O)n3CCCOc1cc(cc3cc(F)ccc13)CCc1cc(nn1C)CSC2` [Compound 38]: 0.019 nM and 540 nM.
The matching figures for `COCCOCCn1nc(C)c2c1C[S+]([O-])Cc1cc(n(C)n1)CCc1cc(c3ccc(F)cc3c1)OCCCn1c(C(=O)O)c(C)c3c-2c(Cl)ccc31` (single isomer, unassigned) [Compound 49]: 0.01 nM and 141 nM.
As for `Cc1c(C(=O)O)n2c3ccc(Cl)c(c13)-c1c(nn(C)c1C)CN(C)Cc1cc(n(C)n1)CCc1cc(c3ccc(F)cc3c1)OCCC2` [Compound 9], the AC50 in assay [2] (setting [4]) was 1170 nM.
Take `COCCOCCn1nc(C)c2c1C[S+]([O-])Cc1cc(n(C)n1)CCc1cc(c3ccc(F)cc3c1)OCCCn1c(C(=O)O)c(C)c3c-2c(Cl)ccc31` (single isomer, unassigned) [Compound 50]: the Ki in assay [1] (TB-MCL1 Ki (nM)) was 0.013 nM. The AC50 in assay [2] (setting [4]) is 83.6 nM.
Regarding `Cc1nn(CCO)c2c1-c1c(Cl)ccc3c1c(C)c(C(=O)O)n3CCCOc1cc(cc3cc(F)ccc13)CCc1cc(nn1C)CSC2` [Compound 53], the AC50 in assay [2] (setting [4]) worked out at 1250 nM.
On the same count and under the same terms, as for `COCCn1nc(C)c2c1CSCc1cc(n(C)n1)CCc1cc(c3ccc(Cl)cc3c1)OCCCn1c(C(=O)O)c(C)c3c-2c(Cl)ccc31` [Compound 47], the figure is 2710 nM.
As for `Cc1c(C(=O)O)n2c3ccc(Cl)c(c13)-c1c(nn(C)c1C)CN(C)Cc1cc(n(C)n1)CCc1cc(c3ccc(F)cc3c1)OCCC2` [Compound 8], the AC50 in assay [2] (setting [4]) was 68.8 nM.
In assay [1] (TB-MCL1 Ki (nM)), `COCCn1nc(C)c2c1CSCc1cc(n(C)n1)CCc1cc(c3ccc(F)cc3c1)OCCCn1c(C(=O)O)c(C)c3c-2c(Cl)ccc31` [Compound 18] gave a Ki of 0.025 nM. Also, in assay [2] (setting [3]), the AC50 amounted to 17 nM.
Taken in the same sequence, the figures for `COCC(COC)n1nc2c(c1C)-c1c(Cl)ccc3c1c(C)c(C(=O)O)n3CCCOc1cc(cc3cc(F)ccc13)CCc1cc(nn1C)CSC2` [Compound 21] were 0.066 nM and 49.5 nM.
Taken in the same sequence, the figures for `Cc1c(C(=O)O)n2c3ccc(Cl)c(c13)-c1c(nn(C)c1C)CSCc1cc(n(C)n1)CCc1cc(c3c(F)cccc3c1)OCCC2` [Compound 5] were 0.411 nM and 1290 nM.
In assay [1] (TB-MCL1 Ki (nM)), `COCCOCCn1nc(C)c2c1CSCc1cc(n(C)n1)CCc1cc(c3ccc(F)c(F)c3c1)OCCCn1c(C(=O)O)c(C)c3c-2c(Cl)ccc31` (single isomer, unassigned) [Compound 64] yielded a Ki of 2.33 nM. Besides, the AC50 in assay [2] (setting [3]) is 2100 nM.
Regarding `Cc1c(C(=O)O)n2c3ccc(Cl)c(c13)-c1c(nn(C)c1C)CS(=O)(=O)Cc1cc(n(C)n1)CCc1cc(c3ccccc3c1)OCCC2` [Compound 7], the Ki in assay [1] (TB-MCL1 Ki (nM)) came to 1.71 nM. Besides, the AC50 in assay [2] (setting [4]) is 11900 nM.
In turn, `CNCCn1nc(C)c2c1CSCc1cc(n(C)n1)CCc1cc(c3ccc(F)cc3c1)OCCCn1c(C(=O)O)c(C)c3c-2c(Cl)ccc31` (single isomer, unassigned) [Compound 69] had a Ki in assay [1] (TB-MCL1 Ki (nM)) of 0.014 nM. The AC50 in assay [2] (setting [3]) was 402 nM.
